How the values were obtained:
KRAS G12D = KRAS G12D (Homo sapiens, UniProt P01116, G12D); experiment: GDP-GTP exchange assay (bodipy-GDP/GppNHp, SOS1), KRAS G12D; format: biochemical; settings: bodipy-loaded KRAS G12D 2.5 nM, 4 hours pre-incubation with inhibitor, 2 hours after GppNHp/SOS1; read-out: G12D_exchange IC50
Experimental: (§1) The inhibitor potency of the exemplified compounds was determined in a fluorescence based guanine nucleotide exchange assay, which measures the exchange of bodipy-GDP (fluorescently labeled GDP) for GppNHp (Non-hydrolyzable GTP analog) to generate the active state of KRAS in the presence of SOS1 (guanine nucleotide exchange factor). Inhibitors were serially diluted in DMSO and a volume of 0.1 μL was transferred to the wells of a black low volume 384-well plate. 5 μL/well volume of bodipy-loaded KRAS G12D diluted to 2.5 nM in assay buffer (25 mM Hepes pH 7.5, 50 mM NaCl, 10 mM MgCl2 and 0.01% Brij-35) was added to the plate and pre-incubated with inhibitor for 4 hours at ambient temperature. Appropriate controls (enzyme with no inhibitor or with a G12D inhibitor) were included on the plate. The exchange was initiated by the addition of a 5 μL/well volume containing 1 mM GppNHp and 300 nM SOS1 in assay buffer. The 10 μL/well reaction concentration of the bodipy-loaded KRAS G12D, GppNHp, and SOS1 were 2.5 nM, 500 uM, and 150 nM, respectively. The reaction plates were incubated at ambient temperature for 2 hours, a time estimated for complete GDP-GTP exchange in the absence of inhibitor. For the KRAS G12V mutant, similar guanine nucleotide exchange assays were used with 2.5 nM as final concentration for the bodipy loaded KRAS proteins and 3 hours incubation after adding GppNHp-SOS1 mixture. A cyclic peptide described to selectively bind G12D mutant (Sakamoto et al., BBRC 484.3 (2017), 605-611) or internal compounds with confirmed binding were used as positive controls in the assay plates. Fluorescence intensities were measured on a PheraStar plate reader instrument (BMG Labtech) with excitation at 485 nm and emission at 520 nm.
(§2) Either GraphPad prism or Genedata Screener SmartFit was used to analyze the data. The IC50 values were derived by fitting the data to a four parameter logistic equation producing a sigmoidal dose-response curve with a variable Hill coefficient.
(§3) The symbol “†” indicates IC50≤100 nM, “††” indicates IC50>100 nM but ≤1 μM; and “†††” indicates IC50 is >1 μM but ≤5 μM, “††††” indicates IC50 is >5 μM but ≤10 μM. “NA” indicates IC50 not available.

KRAS G12V = KRAS G12V (Homo sapiens, UniProt P01116, G12V); experiment: GDP-GTP exchange assay (bodipy-GDP/GppNHp, SOS1), KRAS G12V; format: biochemical; settings: bodipy-loaded KRAS G12V 2.5 nM, 3 hours incubation after adding GppNHp-SOS1; read-out: G12V_exchange IC50
Experimental: as §1, §2, §3

Chain of KRAS G12V (P01116 1-188 isoform P01116-2 G12V): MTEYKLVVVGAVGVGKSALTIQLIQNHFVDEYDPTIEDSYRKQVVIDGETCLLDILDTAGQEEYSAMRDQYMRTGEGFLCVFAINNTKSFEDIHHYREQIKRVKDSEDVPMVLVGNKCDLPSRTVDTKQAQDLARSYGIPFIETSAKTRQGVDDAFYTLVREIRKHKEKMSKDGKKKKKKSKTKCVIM
Chain of KRAS G12D (P01116 1-188 isoform P01116-2 G12D): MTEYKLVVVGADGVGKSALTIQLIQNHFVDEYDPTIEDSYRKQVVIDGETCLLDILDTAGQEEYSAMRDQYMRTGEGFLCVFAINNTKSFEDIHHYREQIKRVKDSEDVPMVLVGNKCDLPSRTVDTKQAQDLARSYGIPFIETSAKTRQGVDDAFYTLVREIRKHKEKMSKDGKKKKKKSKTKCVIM

CN(C)C1CN(c2nc3c(F)c(-c4cc(O)cc5ccccc45)c(CCC#N)cc3c3c2nc(-c2cn(C4CCNCC4)nn2)n3C2C3CNC2C3)C1 (single isomer, unassigned) [Example 26a, 3-(1-((endo)-2-Azabicyclo[2.1.1]hexan-5-yl)-4-(3-(dimethylamino)azetidin-1-yl)-6-fluoro-7-(3-hydroxynaphthalen-1-yl)-2-(1-(piperidin-4-yl)-1H-1,2,3-triazol-4-yl)-1H-imidazo[4,5-c]quinolin-8-yl)propanenitrile]
IC50 (KRAS G12D): ≤ 100 nM | IC50 (KRAS G12V): ≤ 100 nM

CN1CCC[C@H]1COc1nc2c(F)c(-c3cc(O)cc4ccccc34)c(CCC#N)cc2c2c1nc(-c1cn(C3CCC3)nn1)n2C1C2CNC1C2 (single isomer, unassigned) [Example 27a]
IC50 (KRAS G12D): ≤ 100 nM | IC50 (KRAS G12V): ≤ 100 nM

CN(C)C(=O)CCc1nc2c(N3CC(N(C)C)C3)nc3c(F)c(-c4nc(N)cc5ccccc45)c(CCC#N)cc3c2n1C1C2CNC1C2 (single isomer, unassigned) [Example 31a, 3-(7-(3-aminoisoquinolin-1-yl)-1-endo-(2-azabicyclo[2.1.1]hexan-5-yl)-8-(2-cyanoethyl)-4-(3-(dimethylamino)azetidin-1-yl)-6-fluoro-1H-imidazo[4,5-c]quinolin-2-yl)-N,N-dimethylpropanamide]
IC50 (KRAS G12D): 100 to 1000 nM | IC50 (KRAS G12V): 5000 to 10000 nM

CN(C)C(=O)CCc1nc2c(N3CC(N(C)C)C3)nc3c(F)c(-c4nc(N)ccc4C(F)(F)F)c(CCC#N)cc3c2n1C1C2CNC1C2 (single isomer, unassigned) [Example 32a, 3-(7-(6-amino-3-(trifluoromethyl)pyridin-2-yl)-1-endo-(2-azabicyclo[2.1.1]hexan-5-yl)-8-(2-cyanoethyl)-4-(3-(dimethylamino)azetidin-1-yl)-6-fluoro-1H-imidazo[4,5-c]quinolin-2-yl)-N,N-dimethylpropanamide]
IC50 (KRAS G12D): 100 to 1000 nM | IC50 (KRAS G12V): 5000 to 10000 nM

CN(C)C1CN(c2nc3c(F)c(-c4cc(O)cc5ccccc45)c(CCC#N)cc3c3c2nc(-c2ccn(-c4ccccc4)n2)n3C2C3CNC2C3)C1 (single isomer, unassigned) [Example 34a, 3-(1-((endo)-2-azabicyclo[2.1.1]hexan-5-yl)-4-(3-(dimethylamino)azetidin-1-yl)-6-fluoro-7-(3-hydroxynaphthalen-1-yl)-2-(1-phenyl-1H-pyrazol-3-yl)-1H-imidazo[4,5-c]quinolin-8-yl)propanenitrile]
IC50 (KRAS G12D): ≤ 100 nM | IC50 (KRAS G12V): ≤ 100 nM

CCn1ccc(-c2nc3c(N4CC(N(C)C)C4)nc4c(F)c(-c5cc(O)cc6ccccc56)c(CCC#N)cc4c3n2C2C3CNC2C3)n1 (single isomer, unassigned) [Example 35a, 3-(1-((endo)-2-azabicyclo[2.1.1]hexan-5-yl)-4-(3-(dimethylamino)azetidin-1-yl)-2-(1-ethyl-1H-pyrazol-3-yl)-6-fluoro-7-(3-hydroxynaphthalen-1-yl)-1H-imidazo[4,5-c]quinolin-8-yl)propanenitrile]
IC50 (KRAS G12D): ≤ 100 nM | IC50 (KRAS G12V): ≤ 100 nM

CN(C)C1CN(c2nc3c(F)c(-c4cc(O)cc5ccccc45)c(CCC#N)cc3c3c2nc(-c2ccn(Cc4ccccc4)n2)n3C2C3CNC2C3)C1 (single isomer, unassigned) [Example 36a, 3-(2-(1-benzyl-1H-pyrazol-3-yl)-1-((endo)-2-azabicyclo[2.1.1]hexan-5-yl)-4-(3-(dimethylamino)azetidin-1-yl)-6-fluoro-7-(3-hydroxynaphthalen-1-yl)-1H-imidazo[4,5-c]quinolin-8-yl)propanenitrile]
IC50 (KRAS G12D): 100 to 1000 nM | IC50 (KRAS G12V): ≤ 100 nM

CN(C)C1CN(c2nc3c(F)c(-c4cc(O)cc5ccccc45)c(CCC#N)cc3c3c2nc(CCc2ncccn2)n3C2C3CNC2C3)C1 (single isomer, unassigned) [Example 37, 3-(1-((endo)-2-azabicyclo[2.1.1]hexan-5-yl)-4-(3-(dimethylamino)azetidin-1-yl)-6-fluoro-7-(3-hydroxynaphthalen-1-yl)-2-(2-(pyrimidin-2-yl)ethyl)-1H-imidazo[4,5-c]quinolin-8-yl)propanenitrile]
IC50 (KRAS G12D): ≤ 100 nM | IC50 (KRAS G12V): ≤ 100 nM

CN(C)C1CN(c2nc3c(F)c(-c4cc(O)cc5ccccc45)c(CCC#N)cc3c3c2nc(-c2ccc4[nH]ncc4c2)n3C2C3CNC2C3)C1 (single isomer, unassigned) [Example 38a]
IC50 (KRAS G12D): 100 to 1000 nM | IC50 (KRAS G12V): ≤ 100 nM

CN(C)C(=O)CCc1nc2c(N3CC(N(C)C)C3)nc3c(F)c(-c4c(O)ccc(Cl)c4Cl)c(CCC#N)cc3c2n1C1C2CNC1C2 (stereo not shown) [Example 10, 3-(1-(2-azabicyclo[2.1.1]hexan-5-yl)-8-(2-cyanoethyl)-7-(2,3-dichloro-6-hydroxyphenyl)-4-(3-(dimethylamino)azetidin-1-yl)-6-fluoro-1H-imidazo[4,5-c]quinolin-2-yl)-N,N-dimethylpropanamide]
IC50 (KRAS G12D): ≤ 100 nM | IC50 (KRAS G12V): 100 to 1000 nM

CN(C)C(=O)CCc1nc2c(N3CC(N(C)C)C3)nc3c(F)c(-c4cc(O)cc(Cl)c4C4CC4)ccc3c2n1C1C2CNC1C2 (stereo not shown) [Example 11, 3-(1-(2-azabicyclo[2.1.1]hexan-5-yl)-7-(3-chloro-2-cyclopropyl-5-hydroxyphenyl)-4-(3-(dimethylamino)azetidin-1-yl)-6-fluoro-1H-imidazo[4,5-c]quinolin-2-yl)-N,N-dimethylpropanamide]
IC50 (KRAS G12D): ≤ 100 nM | IC50 (KRAS G12V): 1000 to 5000 nM

CN(C)C(=O)CCc1nc2c(N3CC(N(C)C)C3)nc3c(-c4cnn(-c5ccccn5)c4)c(-c4cc(O)cc5ccccc45)c(CCC#N)cc3c2n1C1C2CNC1C2 (stereo not drawn) [Example 13, 3-(1-((endo)-2-azabicyclo[2.1.1]hexan-5-yl)-8-(2-cyanoethyl)-4-(3-(dimethylamino)azetidin-1-yl)-7-(3-hydroxynaphthalen-1-yl)-6-(1-(pyridin-2-yl)-1H-pyrazol-4-yl)-1H-imidazo[4,5-c]quinolin-2-yl)-N,N-dimethylpropanamide]
IC50 (KRAS G12D): 100 to 1000 nM | IC50 (KRAS G12V): 5000 to 10000 nM

CN(C)C(=O)CCc1nc2c(N3CC(N(C)C)C3)nc3c(F)c(-c4cc(O)cc5ccccc45)cc(CN4CCC(C#N)C4)c3c2n1C1C2CNC1C2 (stereo not drawn) [Example 16, 3-(1-((endo)2-azabicyclo[2.1.1]hexan-5-yl)-9-((3-cyanopyrrolidin-1-yl)methyl)-4-(3-(dimethylamino)azetidin-1-yl)-6-fluoro-7-(3-hydroxynaphthalen-1-yl)-1H-imidazo[4,5-c]quinolin-2-yl)-N,N-dimethylpropanamide]
IC50 (KRAS G12D): 100 to 1000 nM | IC50 (KRAS G12V): 5000 to 10000 nM

CCc1nc2c(OC[C@@]34CCCN3C[C@H](F)C4)nc3c(F)c(-c4c[nH]c5ccc(C)cc45)c(CCC#N)cc3c2n1C1C2CNC1C2 (stereo partly drawn) [Example 28, 3-(1-(2-azabicyclo[2.1.1]hexan-5-yl)-2-ethyl-6-fluoro-4-(((2R,7aS)-2-fluorotetrahydro-1H-pyrrolizin-7a(5H)-yl)methoxy)-7-(5-methyl-1H-indol-3-yl)-1H-imidazo[4,5-c]quinolin-8-yl)propanenitrile]
IC50 (KRAS G12D): ≤ 100 nM | IC50 (KRAS G12V): 100 to 1000 nM

C[C@H](Oc1nc2c(F)c(-c3cccc4cccc(C#N)c34)c(Cl)cc2c2c1ncn2[C@H]1CCN(C(=O)CC#N)[C@H](CC#N)C1)[C@@H]1CCCN1C [Example 40, 8-(8-chloro-1-((2S,4S)-1-(2-cyanoacetyl)-2-(cyanomethyl)piperidin-4-yl)-6-fluoro-4-((S)-1-((S)-1-methylpyrrolidin-2-yl)ethoxy)-1H-imidazo[4,5-c]quinolin-7-yl)-1-naphthonitrile]
IC50 (KRAS G12D): ≤ 100 nM | IC50 (KRAS G12V): ≤ 100 nM

C[C@H](Oc1nc2c(F)c(-c3cccc4cccc(C#N)c34)c(Cl)cc2c2c1ncn2[C@H]1CCN(C(=O)c2nc[nH]n2)[C@H](CC#N)C1)[C@@H]1CCCN1C [Example 41, 8-(8-chloro-1-((2S,4S)-2-(cyanomethyl)-1-(1H-1,2,4-triazole-3-carbonyl)piperidin-4-yl)-6-fluoro-4-((S)-1-((S)-1-methylpyrrolidin-2-yl)ethoxy)-1H-imidazo[4,5-c]quinolin-7-yl)-1-naphthonitrile]
IC50 (KRAS G12D): 100 to 1000 nM | IC50 (KRAS G12V): ≤ 100 nM

C[C@H](Oc1nc2c(F)c(-c3cccc4cccc(C#N)c34)c(Cl)cc2c2c1ncn2[C@H]1CCN(C(N)=O)[C@H](CC#N)C1)[C@@H]1CCCN1C [Example 42, (2S,4S)-4-(8-chloro-7-(8-cyanonaphthalen-1-yl)-6-fluoro-4-((S)-1-((S)-1-methylpyrrolidin-2-yl)ethoxy)-1H-imidazo[4,5-c]quinolin-1-yl)-2-(cyanomethyl)piperidine-1-carboxamide]
IC50 (KRAS G12D): ≤ 100 nM | IC50 (KRAS G12V): ≤ 100 nM
